pEC50: −log10 of the molar value.
Molecular target: human F508del-CFTR (Homo sapiens, UniProt P13569, DEL508-508)
Test: F508del-CFTR cell surface expression (corrector activity), DiscoveRx ß-galactosidase complementation chemiluminescence assay in recombinant U2OS cell line;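 further: U2OS cells co-expressing ProLink-tagged F508del-CFTR and a membrane-anchored enzyme acceptor, where more surface CFTR restores β-galactosidase activity measured by chemiluminescence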
Settings: U2OS cells, 16h compound incubation; for pEC50: EC50, F508del-CFTR cell surface expression, geomean of several measurements; for Emax: U2OS, in relation to the Emax of the corrector lumacaftor (=100%), arithmetic mean

human F508del-CFTR, sequence (P13569 with tags, fused parts or gaps DEL508-508): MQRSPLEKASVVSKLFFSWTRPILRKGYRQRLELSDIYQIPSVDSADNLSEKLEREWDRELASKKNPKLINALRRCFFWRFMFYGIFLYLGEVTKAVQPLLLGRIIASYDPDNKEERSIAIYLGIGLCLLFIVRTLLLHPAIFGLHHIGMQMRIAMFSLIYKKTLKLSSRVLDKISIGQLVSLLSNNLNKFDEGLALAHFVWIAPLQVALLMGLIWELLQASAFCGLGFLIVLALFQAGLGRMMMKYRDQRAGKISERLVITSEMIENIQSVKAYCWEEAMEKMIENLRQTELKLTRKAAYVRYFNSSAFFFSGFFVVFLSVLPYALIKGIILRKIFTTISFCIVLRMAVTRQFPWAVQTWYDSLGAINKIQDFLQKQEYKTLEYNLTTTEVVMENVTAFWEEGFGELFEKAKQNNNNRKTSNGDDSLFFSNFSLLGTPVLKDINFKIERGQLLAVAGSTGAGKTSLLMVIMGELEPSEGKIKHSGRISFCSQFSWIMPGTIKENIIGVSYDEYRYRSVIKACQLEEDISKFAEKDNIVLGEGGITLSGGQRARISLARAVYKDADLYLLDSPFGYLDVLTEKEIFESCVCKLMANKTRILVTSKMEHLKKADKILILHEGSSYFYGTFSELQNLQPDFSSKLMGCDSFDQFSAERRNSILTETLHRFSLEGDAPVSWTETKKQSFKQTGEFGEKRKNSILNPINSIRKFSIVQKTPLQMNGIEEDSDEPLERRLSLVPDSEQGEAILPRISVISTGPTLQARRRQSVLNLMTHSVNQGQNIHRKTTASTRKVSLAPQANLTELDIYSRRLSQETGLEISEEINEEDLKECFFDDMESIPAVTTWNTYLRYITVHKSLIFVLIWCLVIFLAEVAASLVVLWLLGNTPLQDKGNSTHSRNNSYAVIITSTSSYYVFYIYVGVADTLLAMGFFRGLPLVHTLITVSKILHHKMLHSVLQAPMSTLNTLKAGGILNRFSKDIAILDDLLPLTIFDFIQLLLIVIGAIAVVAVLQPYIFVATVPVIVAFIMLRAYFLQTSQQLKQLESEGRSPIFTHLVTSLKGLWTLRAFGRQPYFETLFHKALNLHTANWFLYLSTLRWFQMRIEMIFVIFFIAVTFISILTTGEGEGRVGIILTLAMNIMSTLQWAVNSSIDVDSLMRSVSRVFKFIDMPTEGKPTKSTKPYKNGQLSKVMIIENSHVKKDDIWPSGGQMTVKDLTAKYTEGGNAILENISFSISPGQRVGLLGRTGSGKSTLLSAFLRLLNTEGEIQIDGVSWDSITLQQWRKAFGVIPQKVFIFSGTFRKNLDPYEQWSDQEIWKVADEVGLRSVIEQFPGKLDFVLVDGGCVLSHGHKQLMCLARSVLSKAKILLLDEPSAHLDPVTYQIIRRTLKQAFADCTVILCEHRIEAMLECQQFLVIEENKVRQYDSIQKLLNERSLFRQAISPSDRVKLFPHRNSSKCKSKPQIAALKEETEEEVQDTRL

| pEC50 | Emax | SMILES |
| --- | --- | --- |
| 6.08 | 374% | Cc1cc2c3c(ccc2cn1)OC[C@@H](Cc1ccccc1)NC(=O)C1(CC1)N(C)C(=O)[C@H](CC(C)C)N(C)C(=O)C[C@@H](C(=O)NCCc1noc(C2CC2)n1)NC3=O [Example 900, (3′S,7′S,13′R)-13′-benzyl-N-(2-(5-cyclopropyl-1,2,4-oxadiazol-3-yl)ethyl)-7′-isobutyl-6′,9′,20′-trimethyl-1′,5′,8′,11′-tetraoxo-2′,3′,4′,5′,6′,7′,8′,9′,11′,12′,13′,14′-dodecahydro-1′H-spiro[cyclopropane-1,10′-[1]oxa[4,7,10,14]tetraazacycloheptadecino[16,17-f]isoquinoline]-3′-carboxamide] |
| 6.13 | 390% | COc1cc(CCNC(=O)[C@@H]2CC(=O)N(C)[C@@H](CC(C)C)C(=O)N(C)C3(CC3)C(=O)N[C@H](Cc3ccccc3)COc3ccc4cnc(C)cc4c3C(=O)N2)on1 [Example 901, (3′S,7′S,13′R)-13′-benzyl-7′-isobutyl-N-(2-(3-methoxyisoxazol-5-yl)ethyl)-6′,9′,20′-trimethyl-1′,5′,8′,11′-tetraoxo-2′,3′,4′,5′,6′,7′,8′,9′,11′,12′,13′,14′-dodecahydro-1′H-spiro[cyclopropane-1,10′-[1]oxa[4,7,10,14]tetraazacycloheptadecino[16,17-f]isoquinoline]-3′-carboxamide] |
| 7.26 | 453% | COc1nc(C)cc2c1C(=O)N[C@H](C(=O)NCCn1nnc(C3CC3)n1)CC(=O)N(C)[C@@H](CC(C)C)C(=O)N(C)[C@H](Cc1nc(C(F)(F)F)no1)C(=O)N[C@H](Cc1ccccc1)CO2 [Example 902, (3R,6R,9S,13S)-3-benzyl-N-(2-(5-cyclopropyl-2H-tetrazol-2-yl)ethyl)-9-isobutyl-16-methoxy-7,10,18-trimethyl-5,8,11,15-tetraoxo-6-((3-(trifluoromethyl)-1,2,4-oxadiazol-5-yl)methyl)-2,3,4,5,6,7,8,9,10,11,12,13,14,15-tetradecahydropyrido[3,4-p][1]oxa[4,7,10,14]tetraazacycloheptadecine-13-carboxamide] |
| 7.29 | 414% | COc1nc(C)cc2c1C(=O)N[C@H](C(=O)NCCn1nc3ccccc3n1)CC(=O)N(C)[C@@H](CC(C)C)C(=O)N(C)[C@H](Cc1nc(C(F)(F)F)no1)C(=O)N[C@H](Cc1ccccc1)CO2 [Example 903, (3R,6R,9S,13S)-N-(2-(2H-benzo[d][1,2,3]triazol-2-yl)ethyl)-3-benzyl-9-isobutyl-16-methoxy-7,10,18-trimethyl-5,8,11,15-tetraoxo-6-((3-(trifluoromethyl)-1,2,4-oxadiazol-5-yl)methyl)-2,3,4,5,6,7,8,9,10,11,12,13,14,15-tetradecahydropyrido[3,4-p][1]oxa[4,7,10,14]tetraazacycloheptadecine-13-carboxamide] |
| 6.14 | 365% | Cc1cc2c3c(ccc2cn1)OC[C@@H](Cc1ccccc1)NC(=O)C1(CC1)N(C)C(=O)[C@H](CC(C)C)N(C)C(=O)C[C@@H](C(=O)NCCn1nc2ccccc2n1)NC3=O [Example 904, (3′S,7′S,13′R)-N-(2-(2H-benzo[d][1,2,3]triazol-2-yl)ethyl)-13′-benzyl-7′-isobutyl-6′,9′,20′-trimethyl-1′,5′,8′,11′-tetraoxo-2′,3′,4′,5′,6′,7′,8′,9′,11′,12′,13′,14′-dodecahydro-1′H-spiro[cyclopropane-1,10′-[1]oxa[4,7,10,14]tetraazacycloheptadecino[16,17-f]isoquinoline]-3′-carboxamide] |
| 6.51 | 415% | Cc1cc2c3c(ccc2cn1)OC[C@@H](Cc1ccccc1)NC(=O)[C@@H](Cc1nc(-c2ccc(F)cn2)no1)N(C)C(=O)[C@H](CC(C)C)N(C)C(=O)C[C@@H](C(=O)NCCc1noc(C2CC2)n1)NC3=O [Example 905] |

— US20240208992A1, “MACROCYCLES AS CFTR MODULATORS” (Idorsia Pharmaceuticals Ltd, priority 2021, published 2024)
